# Source: patent US20230096028A1, “BICYCLIC HETEROCYCLYL COMPOUNDS AND USES THEREOF” (Revolution Medicines, Inc., priority 2019, published 2023)
# Tests used:
# [1] = target: T1, SOS1 catalytic domain (residues 564-1049) (Homo sapiens, UniProt Q07889); assay: Mode of Action Assay: inhibition of SOS1 nucleotide exchange activity (SOS1 TR-FRET IC50 Assay)
# T1 sequence (Q07889 564-1049): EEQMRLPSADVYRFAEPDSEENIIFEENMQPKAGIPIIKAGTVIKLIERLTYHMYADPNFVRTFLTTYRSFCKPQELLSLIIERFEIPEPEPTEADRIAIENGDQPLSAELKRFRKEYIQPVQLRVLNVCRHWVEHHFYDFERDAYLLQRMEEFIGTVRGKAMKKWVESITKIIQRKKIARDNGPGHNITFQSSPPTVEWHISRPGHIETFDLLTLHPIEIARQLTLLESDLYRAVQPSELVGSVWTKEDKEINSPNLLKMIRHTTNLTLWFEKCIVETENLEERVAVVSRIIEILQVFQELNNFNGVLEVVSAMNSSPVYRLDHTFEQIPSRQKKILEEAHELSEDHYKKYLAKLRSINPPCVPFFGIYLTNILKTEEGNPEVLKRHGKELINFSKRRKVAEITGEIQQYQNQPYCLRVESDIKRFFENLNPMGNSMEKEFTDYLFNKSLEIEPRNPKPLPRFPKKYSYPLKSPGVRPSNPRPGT
# [2] = test system: PC-9 cells (EGFR Ex19Del); assay: Potency Assay: pERK (SOS1 pERK IC50 Assay, AlphaLISA SureFire Ultra p-ERK1/2); format: cell-based; settings: Homo sapiens; PC-9 cells (EGFR Ex19Del), 1 hour incubation, AlphaLISA p-ERK1/2; read-out: SOS1 pERK IC50
# How it was run: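 PC-9 (EGFR Ex19Del) cells plated overnight, then treated 1 h at 37° C. with 10-point 3-fold dilutions (top 10 μM final) in duplicate. Lysate pERK1/2 measured by AlphaLISA SureFire Ultra; IC50 from 4-parameter sigmoidal fit.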
# [3] = target: T1, SOS1 catalytic domain (residues 564-1049); assay: Potency Assay: binding affinity to SOS1 using Surface Plasmon Resonance (SPR); parameters: SOS1 catalytic domain (residues 564-1049) immobilized on a sensor chip; settings: immobilized SOS1 catalytic domain (residues 564-1049), read-out: SOS1 SPR Equilibrium Kd
# How it was run: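 Avi-tagged SOS1 catalytic domain captured on streptavidin chip (~6000 RU) in 0.01 M HEPES, 0.15 M NaCl, 0.05% P20. Compound dilution series flowed at 50 μL/min for association, then buffer for dissociation, with double reference subtraction. Kd derived from end-of-association binding response plotted against concentration.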
IC50 [1],IC50 [2],Kd [3],Compound
< 1000 nM,< 1000 nM,< 400 nM,C[C@@H](Nc1nc(Cl)nc2c1CN(C(=O)N1C[C@@H]3C[C@H]1CN3C)C2)c1cccc(C(F)F)c1F [Example 412]
< 1000 nM,< 1000 nM,< 400 nM,C[C@@H](Nc1nc(Cl)nc2c1CN(C(=O)[C@@H]1COCCN1C)C2)c1cccc(C(F)F)c1F [Example 321]
< 1000 nM,> 1000 nM,< 400 nM,"C[C@@H](Nc1nc(Cl)nc2c1CN(C(=O)N1CCOCC1)C2)c1cccc(C(F)F)c1 [Example 486, 2-chloro-N-[(1R)-1-[3-(difluoromethyl)phenyl]ethyl]-6-(morpholine-4-carbonyl)-5H,6H,7H-pyrrolo[3,4-d]pyrimidin-4-amine]"
< 1000 nM,< 1000 nM,< 400 nM,C[C@@H](Nc1nc(Cl)nc2c1CN(C(=O)c1ccnnc1)C2)c1cc(N)cc(C(F)(F)F)c1 [Example 78]
< 1000 nM,< 1000 nM,< 400 nM,C[C@@H](Nc1nc(Cl)nc2c1CN(C(=O)C1(C)CCN(C3COC3)CC1)C2)c1cccc(C(F)F)c1F [Example 327]
< 1000 nM,< 1000 nM,< 400 nM,C[C@@H](Nc1nc(Cl)nc2c1CN(S(=O)(=O)C1CCOC1)CC2)c1cc(N)cc(C(F)(F)F)c1 (stereo partly drawn) [Example 449]
< 1000 nM,> 1000 nM,< 400 nM,C[C@@H](Nc1nc(Cl)nc2c1CN(C(=O)CC1CCN(C)C1)C2)c1cc(N)cc(C(F)(F)F)c1 (stereo partly drawn) [Example 257]
< 1000 nM,> 1000 nM,< 400 nM,"O=C(N1CCOCC1)N1Cc2nc(Cl)nc(NC(CF)c3cccc(C(F)(F)CO)c3)c2C1 (stereo not drawn) [Example 463, (2-chloro-4-((1-(3-(1,1-difluoro-2-hydroxyethyl)phenyl)-2-fluoroethyl)amino)-5,7-dihydro-6H-pyrrolo[3,4-d]pyrimidin-6-yl)(morpholino)methanone]"
> 1000 nM,< 1000 nM,< 400 nM,COc1ncc(C(=O)N2Cc3nc(Cl)nc(N[C@H](C)c4cc(N)cc(C(F)(F)F)c4)c3C2)cn1 [Example 60]
< 1000 nM,< 1000 nM,< 400 nM,C[C@@H](Nc1nc(Cl)nc2c1CN(C(=O)N1CCNc3ncncc31)C2)c1cc(N)cc(C(F)(F)F)c1 [Example 354]
< 1000 nM,< 1000 nM,< 400 nM,"C[C@@H](Nc1nc(Cl)nc2c1CC(C(=O)N1CCOCC1)CC2)c1cc(N)cc(C(F)(F)F)c1 (stereo partly drawn) [Example 165, N-[(1R)-1-[3-amino-5-(trifluoromethyl)phenyl]ethyl]-2-chloro-6-(morpholine-4-carbonyl)-5,6,7,8-tetrahydroquinazolin-4-amine]"
< 1000 nM,< 1000 nM,< 400 nM,COC1(C(=O)N2Cc3nc(Cl)nc(N[C@H](C)c4cccc(C(F)F)c4F)c3C2)CCNCC1 [Example 310]
< 1000 nM,< 1000 nM,< 400 nM,"Cc1nc2c(c(N[C@H](C)c3cc(N)cc(C(F)(F)F)c3)n1)CN(S(=O)(=O)C1CCOCC1)C2 [Example 47, N-[(1R)-1-[3-amino-5-(trifluoromethyl)phenyl]ethyl]-2-methyl-6-tetrahydropyran-4-ylsulfonyl-5,7-dihydropyrrolo[3,4-d]pyrimidin-4-amine]"
< 1000 nM,< 1000 nM,< 400 nM,C[C@@H](Nc1nc(Cl)nc2c1CN(C(=O)C1(C)CN(C)C1)C2)c1cc(N)cc(C(F)(F)F)c1 [Example 265]
< 1000 nM,> 1000 nM,< 400 nM,"COC1(C(=O)N2Cc3nc(C(N)=O)nc(N[C@H](C)c4cccc(C(F)F)c4F)c3C2)CCOCC1 [Example 510, 4-{[(1R)-1-[3-(difluoromethyl)-2-fluorophenyl]ethyl]-amino}-6-(4-methoxyoxane-4-carbonyl)-5H,6H,7H-pyrrolo[3,4-d]pyrimidine-2-carboxamide]"
< 1000 nM,< 1000 nM,< 400 nM,C[C@@H](Nc1nc(Cl)nc2c1CN(C(=O)[C@@H]1CNCCO1)C2)c1cccc(C(F)(F)F)c1 [Example 278]
> 1000 nM,> 1000 nM,< 400 nM,C[C@@H](Nc1nc(Cl)nc2c1CN(C(=O)C1(O)COC1)CC2)c1cc(N)cc(C(F)(F)F)c1 [Example 226]
< 1000 nM,< 1000 nM,< 400 nM,COc1cnc(C(=O)N2Cc3nc(Cl)nc(N[C@H](C)c4cc(N)cc(C(F)(F)F)c4)c3C2)cc1OC [Example 59]
> 1000 nM,> 1000 nM,> 400 nM,C[C@@H](Nc1nc(Cl)nc2c1CN(C(=O)c1cc(N3CCOCC3)ccn1)CC2)c1cc(N)cc(C(F)(F)F)c1 [Example 238]
< 1000 nM,< 1000 nM,< 400 nM,C[C@@H](Nc1nc(Cl)nc2c1CN(C(=O)C1(N)COC1)C2)c1cccc(C(F)F)c1F [Example 285]
< 1000 nM,> 1000 nM,> 400 nM,C[C@@H](Nc1nc(Cl)nc2c1CN(C(=O)C1COCCN1)C2)c1cccc(C(F)(F)F)c1 (stereo partly drawn) [Example 276]
> 1000 nM,< 1000 nM,< 400 nM,C[C@@H](Nc1nc(Cl)nc2c1CN(C(=O)[C@@H]1C[C@@H]1C#N)CC2)c1cc(N)cc(C(F)(F)F)c1 [Example 205]
< 1000 nM,> 1000 nM,< 400 nM,"C[C@@H](Nc1nc(Cl)nc2c1CN(C(=O)N1CCOCC1)C2)c1cccc(C(C)(F)F)c1 [Example 467, [2-chloro-4-[[(1R)-1-[3-(1,1-difluoroethyl)phenyl]ethyl]amino]-5,7-dihydropyrrolo[3,4-d]pyrimidin-6-yl]-morpholino-methanone]"
< 1000 nM,< 1000 nM,< 400 nM,C[C@@H](Nc1nc(Cl)nc2c1CN(C(=O)C1(F)CCNCC1)C2)c1cccc(C(F)F)c1F [Example 284]
< 1000 nM,< 1000 nM,< 400 nM,C[C@@H](Nc1nc(Cl)nc2c1CN(C(=O)C1(C)CCN(C)CC1)C2)c1cc(N)cc(C(F)(F)F)c1 [Example 262]
< 1000 nM,< 1000 nM,< 400 nM,C[C@@H](Nc1nc(Cl)nc2c1CN(C(=O)C1(C#N)CNC1)C2)c1cccc(C(F)F)c1F [Example 328]
< 1000 nM,< 1000 nM,< 400 nM,C[C@@H](Nc1nc(Cl)nc2c1CN(C(=O)N1CCNc3ncncc31)C2)c1cccc(C(F)(F)F)c1 [Example 362]
< 1000 nM,< 1000 nM,< 400 nM,C[C@@H](Nc1nc(Cl)nc2c1CN(C(=O)C1(C#N)CCNCC1)C2)c1cccc(C(F)F)c1F [Example 294]
< 1000 nM,< 1000 nM,< 400 nM,C[C@@H](Nc1nc(Cl)nc2c1CN(C(=O)CC1COCCN1C)C2)c1cccc(C(F)F)c1F (stereo partly drawn) [Example 322]
< 1000 nM,< 1000 nM,< 400 nM,COC1(C(=O)N2Cc3nc(Cl)nc(N[C@H](C)c4cccc5c4OCC5(F)F)c3C2)CCOCC1 [Example 490]

Compound,IC50 [1],IC50 [2],Kd [3]
C[C@@H](Nc1nc(Cl)nc2c1CN(C(=O)N1CC3COCC(C1)N3)C2)c1cccc(C(F)F)c1F [Example 385],< 1000 nM,< 1000 nM,< 400 nM
